Structures are written as SMILES. Structures can show the parent of a compound that is named as a salt.

This experiment relates to Acinetobacter baumannii ATCC17961. The experiment in a line: Antimicrobial susceptibility testing: 90% growth inhibitory concentration (IC90) determination. The format is cell-based. Conditions: Acinetobacter baumannii ATCC17961; Iso-Sensitest broth; growth by OD 600 nm over 16 h; 35±2° C.; read-out: ATCC 17961 IC90. The method, then:
The in vitro antimicrobial activity of the compounds was determined according to the following procedure:
The assay used a 10-points Iso-Sensitest broth medium to measure quantitatively the in vitro activity of the compounds against Acinetobacter baumannii ATCC17961.
Stock compounds in DMSO were serially twofold diluted (e.g. range from 50 to 0.097 μM final concentration) in 384 wells microtiter plates and inoculated with 49 μl the bacterial suspension in Iso-Sensitest medium to have a final cell concentration of ˜5×10^(5) CFU/ml in a final volume/well of 50 ul/well. Microtiter plates were incubated at 35±2° C.
Bacterial cell growth was determined with the measurement of optical density at λ=600 nm each 20 minutes over a time course of 16 h. Growth inhibition was calculated during the logarithmic growth of the bacterial cells with determination of the concentration inhibiting 50% (IC50) and 90% (IC90) of the growth.
Table 1 provides the […] growth inhibitory concentrations (IC90) in micromoles per liter of the compounds of present invention obtained against the strain Acinetobacter baumannii ATCC17961.
With `COc1ccc(-c2cnc(C(=O)Nc3ccc(C(=O)N4CCN(C(=O)CC[N+](C)(C)C)CC4)c(C)c3)n2C)c(F)c1F` [Example B8, [3-[4-[4-[[5-(2,3-Difluoro-4-methoxy-phenyl)-1-methyl-imidazole-2-carbonyl]amino]-2-methyl-benzoyl]piperazin-1-yl]-3-oxo-propyl]-trimethyl-ammonium;2,2,2-trifluoroacetate], the IC90 came out at 180 nM.

As to `Cn1c(-c2ccc(OCC#N)c(F)c2F)cnc1C(=O)Nc1ccc(C(=O)N2CCN(C(=O)CC[N+](C)(C)C)CC2)c(Cl)c1` [Example B9, [3-[4-[2-chloro-4-[[5-[4-(cyanomethoxy)-2,3-difluoro-phenyl]-1-methyl-imidazole-2-carbonyl]amino]benzoyl]piperazin-1-yl]-3-oxo-propyl]-trimethyl-ammonium; iodide], the IC90 turned out to be 56 nM.

Take `COc1ccc(-c2cnc(C(=O)Nc3ccc(C(=O)N4CCN(C(=O)C5CC[N+](C)(C)CC5)CC4)c(Cl)c3)n2C)c(F)c1F` [Example B10, N-[3-chloro-4-[4-(1,1-dimethylpiperidin-1-ium-4-carbonyl)piperazine-1-carbonyl]phenyl]-5-(2,3-difluoro-4-methoxy-phenyl)-1-methyl-imidazole-2-carboxamide; formate]: the IC90 turned out to be 75 nM.

For the molecule `Cn1c(-c2ccc(OC(F)F)cc2F)cnc1C(=O)Nc1ccc(C(=O)N2CCN(C(=O)C[N+](C)(C)C)CC2)c(Cl)c1` [Example B11, [2-[4-[2-chloro-4-[5-[4-(difluoromethoxy)-2-fluoro-phenyl]-1-methyl-imidazole-2-carbonyl]amino]benzoyl]piperazin-1-yl]-2-oxo-ethyl]-trimethyl-ammonium; formate], the IC90 was 150 nM.

For the molecule `Cn1c(-c2ccc(OC(F)F)c(F)c2F)cnc1C(=O)Nc1ccc(C(=O)N2CCN(C(=O)C[N+](C)(C)C)CC2)c(Cl)c1` [Example B12, [2-[4-[2-chloro-4-[[5-[4-(difluoromethoxy)-2,3-difluoro-phenyl]-1-methyl-imidazole-2-carbonyl]amino]benzoyl]piperazin-1-yl]-2-oxo-ethyl]-trimethyl-ammonium; formate], the IC90 amounted to 51 nM.

`COc1ccc(-c2cnc(C(=O)Nc3ccc(C(=O)N4CCN(C(=O)CC5CC[N+](C)(C)C5)CC4)c(Cl)c3)n2C)c(F)c1F` (stereo not shown) [Example B13, N-[3-chloro-4-[4-[2-(1,1-dimethylpyrrolidin-1-ium-3-yl)acetyl]piperazine-1-carbonyl]phenyl]-5-(2,3-difluoro-4-methoxy-phenyl)-1-methyl-imidazole-2-carboxamide; formate]: the concentration for an effect of 90% (IC90) turned out to be 68 nM.

Consider `Cn1c(-c2ccc(OC(F)F)c(F)c2F)cnc1C(=O)Nc1ccc(C(=O)N2CCN(C(=O)C3CCN(C(=O)C[N+](C)(C)C)CC3)CC2)c(Cl)c1` [Example B14, [2-[4-[4-[2-chloro-4-[[5-[4-(difluoromethoxy)-2,3-difluoro-phenyl]-1-methyl-imidazole-2-carbonyl]amino]benzoyl]piperazine-1-carbonyl]-1-piperidyl]-2-oxo-ethyl]-trimethyl-ammonium; formate], for which the IC90 was 76 nM.

Regarding `Cn1c(-c2ccc(OC(F)F)c(F)c2)cnc1C(=O)Nc1ccc(C(=O)N2CCN(C(=O)C[N+](C)(C)C)CC2)c(Cl)c1` [Example B15, [2-[4-[2-chloro-4-[[5-[4-(difluoromethoxy)-3-fluoro-phenyl]-1-methyl-imidazole-2-carbonyl]amino]benzoyl]piperazin-1-yl]-2-oxo-ethyl]-trimethyl-ammonium; formate], the IC90 stood at 140 nM.

For `COc1ccc(-c2cnc(C(=O)Nc3ccc(C(=O)N4CCN(C(=O)C5CN(C(=O)C[N+](C)(C)C)C5)CC4)c(Cl)c3)n2C)c(F)c1F` [Example B16, [2-[3-[4-[2-chloro-4-[[5-(2,3-difluoro-4-methoxy-phenyl)-1-methyl-imidazole-2-carbonyl]amino]benzoyl]piperazine-1-carbonyl]azetidin-1yl]-2-oxo-ethyl]-trimethyl-ammonium; formate], the IC90 is 230 nM.

Take `COc1ccc(-c2cnc(C(=O)Nc3ccc(C(=O)N4CC(NC(=O)C5CC[N+](C)(C)CC5)C4)c(Cl)c3)n2C)c(F)c1F` [Example B17, N-[1-[2-chloro-4-[[5-(2,3-difluoro-4-methoxy-phenyl)-1-methyl-imidazole-2-carbonyl]amino]benzoyl]azetidin-3-yl]-1,1-dimethyl-piperidin-1-ium-4-carboxamide; formate]: the IC90 was 250 nM.

For the molecule `COc1ccc(-c2cnc(C(=O)Nc3ccc(C(=O)N4C[C@@H]5CN(C(=O)[C@@H]6CC[N+](C)(C)C6)C[C@@H]5C4)c(Cl)c3)n2C)c(F)c1F` [Example B18, N-[4-[(3aS,6aR)-5-[(3R)-1,1-dimethylpyrrolidin-1-ium-3-carbonyl]-1,3,3a,4,6,6a-hexahydropyrrolo[3,4-c]pyrrole-2-carbonyl]-3-chloro-phenyl]-5-(2,3-difluoro-4-methoxy-phenyl)-1-methyl-imidazole-2-carboxamide; formate], the IC90 stood at 300 nM.

`COc1ccc(-c2cnc(C(=O)Nc3ccc(C(=O)N4C[C@H]5CN(C(=O)C[N+](C)(C)C)C[C@H]5C4)c(Cl)c3)n2C)c(F)c1F` [Example B19, [2-[(3aS,6aR)-5-[2-chloro-4-[[5-(2,3-difluoro-4-methoxy-phenyl)-1-methyl-imidazole-2-carbonyl]amino]benzoyl]-1,3,3a,4,6,6a-hexahydropyrrolo[3,4-c]pyrrol-2-yl]-2-oxo-ethyl]-trimethyl-ammonium; formate]: the IC90 amounted to 310 nM.

As to `COc1ccc(-c2cnc(C(=O)Nc3ccc(C(=O)N4CCN(C(=O)C[N+](C)(C)C)CC4)c(Cl)c3)n2C)c(F)c1F` [Example B20, [2-[4-[2-chloro-4-[[5-(2,3-difluoro-4-methoxy-phenyl)-1-methyl-imidazole-2-carbonyl]amino]benzoyl]piperazin-1-yl]-2-oxo-ethyl]-trimethyl-ammonium; formate], the IC90 is 76 nM.

For `COc1ccc(-c2cnc(C(=O)Nc3ccc(C(=O)N4CCN(C(=O)C[N+](C)(C)C)CC4)c(C)c3)n2C)c(F)c1F` [Example B21, [2-[4-[4-[5-(2,3-difluoro-4-methoxy-phenyl)-1-methyl-imidazole-2-carbonyl]amino]-2-methyl-benzoyl]piperazin-1-yl]-2-oxo-ethyl]-trimethyl-ammonium; formate], the IC90 is 280 nM.

Take `Cn1c(-c2ccc(OCF)cc2F)cnc1C(=O)Nc1ccc(C(=O)N2CCN(C(=O)C[N+](C)(C)C)CC2)c(Cl)c1` [Example B22, [2-[4-[2-chloro-4-[5-[2-fluoro-4-(fluoromethoxy)phenyl]-1-methyl-imidazole-2-carbonyl]amino]benzoyl]piperazin-1-yl]-2-oxo-ethyl]-trimethyl-ammonium; formate]: the IC90 was 170 nM.

As for `CCc1cc(NC(=O)c2ncc(-c3ccc(OC)c(F)c3F)n2C)ccc1C(=O)N1CCC(C(=O)NCCOCC[N+](C)(C)C)CC1` [Example B23, 2-(2-(1-(4-(5-(2,3-difluoro-4-methoxyphenyl)-1-methyl-1H-imidazole-2-carboxamido)-2-ethylbenzoyl)piperidine-4-carboxamido)ethoxy)-N,N,N-trimethylethan-1-aminium iodide], the IC90 turned out to be 410 nM.

These data come from patent US20240376073A1 (Hoffmann-La Roche Inc., priority 2021, published 2024).
